Data reported in ChEMBL document CHEMBL2385072, “Development of oleanane-type triterpenes as a new class of HCV entry inhibitors” (J Med Chem, 2013).

Columns and labels:
Conditions in all cases: HEK-293T
[1] = tested on: Hepatitis C virus; assay: Antiviral activity against pseudo HCV infected in human 293T cells assessed as inhibition of HCV pseudo particles entry at 1 uM after 72 hrs by luciferase reporter gene assay; assay type: functional, Hepacivirus hominis
[2] = tested on: Hepatitis C virus; assay: Antiviral activity against pseudo HCV infected in human 293T cells assessed as inhibition of HCV pseudo particles entry at 5 uM after 72 hrs by luciferase reporter gene assay; assay type: functional, Hepacivirus hominis
[3] = tested on: Vesicular stomatitis virus; assay: Antiviral activity against pseudo VSV infected in human 293T cells assessed as inhibition of vesicular stromatis G protein pseudo particles entry at 5 uM after 72 hrs by luciferase reporter gene assay; assay type: functional
[4] = tested on: Vesicular stomatitis virus; assay: Antiviral activity against pseudo VSV infected in human 293T cells assessed as inhibition of vesicular stromatis G protein pseudo particles entry at 1 uM after 72 hrs by luciferase reporter gene assay; assay type: functional

Row | Compound | inhibition at 1 µM [1] [%] | inhibition at 5 µM [2] [%] | inhibition at 5 µM [3] [%] | inhibition at 1 µM [4] [%]
1 | CC1(C)CC[C@]2(C(=O)NCc3cn([C@@H]4O[C@H](CO)[C@@H](O)[C@H](O)[C@@H]4O)nn3)[C@H](O)C[C@]3(C)C(=CC[C@@H]4[C@@]5(C)CC[C@H](O)C(C)(C)[C@@H]5CC[C@]43C)[C@@H]2C1 | 17.5 | 25 | 19.5 | 17.9
2 | CC1(C)CC[C@]2(C(=O)NCc3cn([C@@H]4O[C@H](CO)[C@H](O)[C@H](O)[C@H]4O)nn3)[C@H](O)C[C@]3(C)C(=CC[C@@H]4[C@@]5(C)CC[C@H](O)C(C)(C)[C@@H]5CC[C@]43C)[C@@H]2C1 | 16.6 | 36.3 | 25.3 | 11.5
3 | COC(=O)[C@]12CCC(C)(C)C[C@H]1C1=CC[C@@H]3[C@@]4(C)CC[C@H](OC)C(C)(C)[C@@H]4CC[C@@]3(C)[C@]1(C)C[C@H]2OC | 1.7 | 7.9 | 14.2 | 8.5
4 | CC1(C)CC[C@]2(C(=O)NCc3cn([C@@H]4O[C@H](CO)[C@@H](O)[C@H](O)[C@H]4O)nn3)[C@H](O)C[C@]3(C)C(=CC[C@@H]4[C@@]5(C)CC[C@H](O)C(C)(C)[C@@H]5CC[C@]43C)[C@@H]2C1 | 12.4 | 33.1 | 19.1 | -15.2
5 | CC(=O)O[C@@H]1[C@H](OC(C)=O)[C@H](n2cc(CNC(=O)[C@]34CCC(C)(C)C[C@H]3C3=CC[C@@H]5[C@@]6(C)CC[C@H](O)C(C)(C)[C@@H]6CC[C@@]5(C)[C@]3(C)C[C@H]4O)nn2)OC[C@H]1OC(C)=O | 21.8 | 65.8 | 32.2 | 29.3
6 | COC(=O)[C@]12CCC(C)(C)C[C@H]1C1=CC[C@@H]3[C@@]4(C)CC[C@H](O)C(C)(C)[C@@H]4CC[C@@]3(C)[C@]1(C)C[C@H]2OC | 17.5 | 33.7 | 9.9 | 7.3
7 | CC1(C)CC[C@]2(C(=O)O[C@@H]3O[C@H](CO)[C@@H](O[C@@H]4O[C@H](CO)[C@H](O)[C@H](O)[C@H]4O)[C@H](O)[C@H]3O)[C@H](O)C[C@]3(C)C(=CC[C@@H]4[C@@]5(C)CC[C@H](O)C(C)(C)[C@@H]5CC[C@]43C)[C@@H]2C1 | 32.7 | 40.1 | 16.7 | 22.6
8 | CC(=O)O[C@@H]1[C@@H](OC(C)=O)[C@H](OC(=O)[C@]23CCC(C)(C)C[C@H]2C2=CC[C@@H]4[C@@]5(C)CC[C@H](O)C(C)(C)[C@@H]5CC[C@@]4(C)[C@]2(C)C[C@H]3O)OC[C@H]1OC(C)=O | 17.5 | 70.7 | 21.7 | 20.1
9 | CC(=O)O[C@@H]1[C@H](OC(C)=O)[C@H](n2cc(CNC(=O)[C@]34CCC(C)(C)C[C@H]3C3=CC[C@@H]5[C@@]6(C)CC[C@H](O)C(C)(C)[C@@H]6CC[C@@]5(C)[C@]3(C)C[C@H]4O)nn2)O[C@H](C)[C@H]1OC(C)=O | 17 | 71.6 | -10.7 | 32.6
10 | CC1(C)CC[C@]2(C(=O)O)[C@H](O)C[C@]3(C)C(=CC[C@@H]4[C@@]5(C)CC[C@H](O)C(C)(C)[C@@H]5C[C@H](O)[C@]43C)[C@@H]2C1 | 30.4 | 53.5 | 5.6 | 1.6
11 | CC(=O)OC[C@H]1O[C@@H](n2cc(CNC(=O)[C@]34CCC(C)(C)C[C@H]3C3=CC[C@@H]5[C@@]6(C)CC[C@H](O)C(C)(C)[C@@H]6CC[C@@]5(C)[C@]3(C)C[C@H]4O)nn2)[C@@H](OC(C)=O)[C@@H](OC(C)=O)[C@@H]1OC(C)=O | 21.8 | 81.5 | 14.7 | -5.3
